Measured values from ChEMBL document CHEMBL4177607, “Antibacterial constituents of the plant family Amaryllidaceae” (2017).
≈ marks a conversion by molar mass, not a printed value. One block for each compound: values may come before it.

How the values were obtained:
Format in all cases: functional
Shigella flexneri = experiment: Antibacterial activity against Shigella flexneri after 24 hrs by broth microdilution method
Escherichia coli [1] = experiment: Antibacterial activity against Escherichia coli after 24 hrs by broth microdilution method
Pseudomonas aeruginosa = experiment: Antibacterial activity against Pseudomonas aeruginosa after 24 hrs by broth microdilution method
Rhodococcus fascians = experiment: Antibacterial activity against Corynebacterium fascians assessed as diameter of inhibition zone at 10 mM after 48 to 72 hrs by paper disc method; conditions: Rhodococcoides fascians; read-out: DIZ
Flavobacterium columnare [2] = experiment: Antibacterial activity against Flavobacterium columnare BioMed after 24 hrs
Flavobacterium columnare [3] = experiment: Antibacterial activity against Flavobacterium columnare ALM-00-173 after 24 hrs; conditions: ALM-00-173, 24 h
Staphylococcus aureus [4] = experiment: Antibacterial activity against Staphylococcus aureus assessed as diameter of inhibition zone at 3 mg/ml; conditions: read-out: DIZ
Escherichia coli [5] = experiment: Antibacterial activity against Escherichia coli assessed as diameter of inhibition zone at 3 mg/ml; conditions: read-out: DIZ
Neisseria gonorrhoeae = experiment: Antibacterial activity against Neisseria gonorrhoeae
Escherichia coli [6] = experiment: Antibacterial activity against Escherichia coli
Staphylococcus aureus [7] = experiment: Antibacterial activity against Staphylococcus aureus incubated overnight by two-fold serial dilution method
Escherichia coli [8] = experiment: Antibacterial activity against Escherichia coli incubated overnight by two-fold serial dilution method
Staphylococcus aureus [9] = experiment: Antibacterial activity against Staphylococcus aureus assessed as diameter of inhibition zone at 1 mg/ml; conditions: read-out: DIZ
Escherichia coli [10] = experiment: Antibacterial activity against Escherichia coli assessed as diameter of inhibition zone at 1 mg/ml; conditions: read-out: DIZ
Staphylococcus aureus [11] = experiment: Antibacterial activity against Staphylococcus aureus
Edwardsiella ictaluri = experiment: Antibacterial activity against Edwardsiella ictaluri after 24 hrs

Compound: Cc1ccc(C(=O)Oc2ccc([C@@H]3CC(=O)c4c(O)c(C)c(OC(=O)c5ccc(C)cc5)c(C)c4O3)cc2)cc1
- MIC (Shigella flexneri): 8 µg/mL (≈ 14.9 µM)
- MIC (Escherichia coli [1]): 8 µg/mL (≈ 14.9 µM)
- MIC (Pseudomonas aeruginosa): 16 µg/mL (≈ 29.8 µM)

Compound: Oc1ccc2c3c1c1cc4c(cc1c[n+]3CC2)OCO4
- zone of inhibition at 10000 µM (Rhodococcus fascians): 10 mm

Compound: COC1=C[C@@H]2CCN3Cc4cc5c(cc4[C@@H]([C@H]23)[C@@H]1O)OCO5 [AMARBELLISINE]
- zone of inhibition at 3000 µg/mL (Staphylococcus aureus [4]): 22 mm
- zone of inhibition at 3000 µg/mL (Escherichia coli [5]): 22 mm

Compound: COc1cc2c[n+]3c4c(cc([O-])cc4c2cc1O)CC3
- MIC (Flavobacterium columnare [2]): 10 µM
- MIC (Flavobacterium columnare [3]): 100 µM

Compound: O=C1N[C@H]2[C@H](O)[C@H](O)[C@@H](O)C[C@@H]2c2cc3c(c(O)c21)OCO3
- MIC (Shigella flexneri): 4 µg/mL (≈ 12.9 µM)
- MIC (Escherichia coli [1]): 4 µg/mL (≈ 12.9 µM)
- MIC (Pseudomonas aeruginosa): 16 µg/mL (≈ 51.7 µM)

Compound: COc1c(C)c(O)c2c(=O)cc(-c3ccc(O)cc3)oc2c1C [SIDEROXYLIN]
- MIC (Shigella flexneri): 8 µg/mL (≈ 25.6 µM)
- MIC (Escherichia coli [1]): 32 µg/mL (≈ 102 µM)
- MIC (Pseudomonas aeruginosa): 64 µg/mL (≈ 205 µM)

Compound: Oc1cc2c3c(c1)-c1cc4c(cc1CN3CC2)OCO4
- zone of inhibition at 10000 µM (Rhodococcus fascians): 0 mm

Compound: COC1C=C[C@@]23CCN(Cc4cc5c(cc42)OCO5)[C@@H]3C1 (stereo partly drawn)
- MIC (Staphylococcus aureus [7]): 1020 µg/mL (≈ 3590 µM)
- MIC (Escherichia coli [8]): 1020 µg/mL (≈ 3590 µM)

Compound: CN(C)[C@@H]1C(O)=C(C(N)=O)C(=O)[C@@]2(O)C(O)=C3C(=O)c4c(O)cccc4[C@@](C)(O)[C@H]3C[C@@H]12 [TETRACYCLINE]
- MIC (Staphylococcus aureus [7]): 0.5 µg/mL (≈ 1.13 µM)
- MIC (Escherichia coli [8]): 2 µg/mL (≈ 4.5 µM)

Compound: c1cc2c3c(c1)c1cc4c(cc1c[n+]3CC2)OCO4 [ANHYDROLYCORINIUM CHLORIDE]
- zone of inhibition at 10000 µM (Rhodococcus fascians): 30 mm

Compound: CC(=O)O[C@H]1C=C2CCN3Cc4cc5c(cc4[C@H]([C@@H]1O)[C@@H]23)OCO5
- MIC (Flavobacterium columnare [2]): 3.3 µg/mL
- MIC (Flavobacterium columnare [3]): 16.6 µg/mL

Now from value to compound, other results behind:

- MIC (Flavobacterium columnare [2]): 42.1 µg/mL
- MIC (Flavobacterium columnare [3]): 23.2 µg/mL
Compound: Cc1ccccc1NC(=O)O[C@H]1C=C2CCN3Cc4cc5c(cc4[C@H]([C@@H]1O)[C@@H]23)OCO5

- MIC (Flavobacterium columnare [2]): 40.7 µg/mL
- MIC (Flavobacterium columnare [3]): 40.7 µg/mL
Compound: CC(=O)O[C@H]1[C@H]2c3cc4c(cc3CN3CCC(=C[C@@H]1OC(C)=O)[C@H]23)OCO4.Cl

- MIC (Flavobacterium columnare [2]): 5.6 µg/mL
- MIC (Flavobacterium columnare [3]): 31 µg/mL
Compound: O=C(O[C@H]1C=C2CCN3Cc4cc5c(cc4[C@H]([C@@H]1OC(=O)c1ccccc1Cl)[C@@H]23)OCO5)c1cccc(Cl)c1

- MIC (Shigella flexneri): 2 µg/mL (≈ 5.4 µM)
- MIC (Escherichia coli [1]): 4 µg/mL (≈ 10.8 µM)
- MIC (Pseudomonas aeruginosa): 8 µg/mL (≈ 21.6 µM)
Compound: CCCC(=O)Oc1ccc([C@@H]2CC(=O)c3c(O)c(C)c(O)c(C)c3O2)cc1

- MIC (Neisseria gonorrhoeae): 32 to 64 µg/mL (≈ 67.3 to 135 µM)
Compound: CC(=O)Oc1c2c(cc3c1C(=O)N[C@@H]1C3=C[C@H](OC(C)=O)[C@@H](OC(C)=O)[C@H]1OC(C)=O)OCO2

- MIC (Neisseria gonorrhoeae): 32 to 64 µg/mL (≈ 72.2 to 144 µM)
Compound: CC1(C)O[C@@H]2[C@H]3OS(=O)(=O)O[C@H]3[C@]3(O)c4cc5c(c(O)c4C(=O)N[C@H]3[C@@H]2O1)OCO5

- MIC (Flavobacterium columnare [2]): 55.2 µg/mL
- MIC (Flavobacterium columnare [3]): 30.4 µg/mL
Compound: Cc1cccc(C(=O)O[C@H]2[C@H]3c4cc5c(cc4CN4CCC(=C[C@@H]2OC(=O)c2cccc(C)c2C)[C@H]34)OCO5)c1C

- MIC (Flavobacterium columnare [2]): 42.6 µg/mL
- MIC (Flavobacterium columnare [3]): 42.6 µg/mL
Compound: O=C(O[C@H]1C=C2CCN3Cc4cc5c(cc4[C@H]([C@@H]1O)[C@@H]23)OCO5)c1ccc(Cl)cc1

- MIC (Flavobacterium columnare [2]): 22.9 µg/mL
- MIC (Flavobacterium columnare [3]): 4.7 µg/mL
Compound: Cc1ccc(C(=O)O[C@H]2C=C3CCN4Cc5cc6c(cc5[C@H]([C@@H]2O)[C@@H]34)OCO6)cc1

- MIC (Flavobacterium columnare [2]): 30.4 µg/mL
- MIC (Flavobacterium columnare [3]): 5.5 µg/mL
Compound: Cc1ccc(C(=O)O[C@H]2[C@H]3c4cc5c(cc4CN4CCC(=C[C@@H]2OC(=O)c2ccc(C)cc2C)[C@H]34)OCO5)c(C)c1

- MIC (Shigella flexneri): 8 µg/mL (≈ 16.6 µM)
- MIC (Escherichia coli [1]): 8 µg/mL (≈ 16.6 µM)
- MIC (Pseudomonas aeruginosa): 16 µg/mL (≈ 33.2 µM)
Compound: CCCCCCCCCCCC(=O)Oc1ccc([C@@H]2CC(=O)c3c(O)c(C)c(O)c(C)c3O2)cc1

- MIC (Escherichia coli [6]): 2050 µg/mL (≈ 7550 µM)
Compound: O[C@@H]1CC=C2CCN3Cc4cc5c(cc4[C@H]1[C@@H]23)OCO5 [CARANINE]

- MIC (Flavobacterium columnare [2]): 10 µM
- MIC (Flavobacterium columnare [3]): 1 µM
Compound: Oc1cc2c3c(c1)c1cc4c(cc1c[n+]3CC2)OCO4
- zone of inhibition at 10000 µM (Rhodococcus fascians): 0 mm

- MIC (Flavobacterium columnare [2]): 100 µM
- MIC (Flavobacterium columnare [3]): 100 µM
- MIC (Staphylococcus aureus [11]): > 287 µg/mL
- MIC (Edwardsiella ictaluri): > 287 µg/mL
Compound: O[C@H]1[C@H]2c3cc4c(cc3CN3CCC(=C[C@@H]1O)[C@H]23)OCO4 [LYCORINE]
- zone of inhibition at 1000 µg/mL (Staphylococcus aureus [9]): 15 to 28 mm
- zone of inhibition at 1000 µg/mL (Escherichia coli [10]): 13 to 25 mm
- zone of inhibition at 10000 µM (Rhodococcus fascians): 0 mm

- MIC (Neisseria gonorrhoeae): 32 to 64 µg/mL (≈ 71.8 to 144 µM)
Compound: O=C(O[C@H]1[C@@H](O)[C@@H](O)[C@@H]2NC(=O)c3c(cc4c(c3O)OCO4)[C@@]2(O)[C@@H]1O)c1ccccc1

- MIC (Flavobacterium columnare [2]): 4.1 µg/mL
- MIC (Flavobacterium columnare [3]): 4.1 µg/mL
Compound: Cc1ccccc1C(=O)O[C@H]1[C@H]2c3cc4c(cc3CN3CCC(=C[C@@H]1OC(=O)c1ccccc1C)[C@H]23)OCO4
